Experimental data reported in ChEMBL document CHEMBL4390668, “Discovery and Structural Optimization of Acridones as Broad-Spectrum Antimalarials” (J Med Chem, 2019).
Activity calls are given as the source filed them. No cut-off for these calls is given here.

Tests used:
[1] = Selectivity index, ratio of IC50 for human HepG2 cells to IC50 for chloroquine-sensitive Plasmodium falciparum D6 infected in human erythrocytes; assay type: toxicity, cell-based; settings: read-out: Ratio IC50
HepG2 = test: Cytotoxicity against human HepG2 cells measured after 24 to 36 hrs by resazurin dye based fluorescence assay; assay type: cell-based
Plasmodium falciparum [2] = test: Antimalarial activity against multidrug-resistant Plasmodium falciparum Dd2 infected in human erythrocytes by SYBR green 1-based fluorescence assay; assay type: functional, organism-based
Plasmodium falciparum [3] = test: Antimalarial activity against atovaquone-resistant Plasmodium falciparum Tm90-C2B infected in human erythrocytes by SYBR green 1-based fluorescence assay; assay type: functional, organism-based
Plasmodium falciparum [4] = test: Antimalarial activity against chloroquine-sensitive Plasmodium falciparum D6 infected in human erythrocytes by SYBR green 1-based fluorescence assay; assay type: functional, organism-based
Plasmodium falciparum [5] = test: Antimalarial activity against multidrug-resistant Plasmodium falciparum 7G8 infected in human erythrocytes by SYBR green 1-based fluorescence assay; assay type: functional, organism-based
Plasmodium berghei = test: Antimalarial activity against luciferase-expressing Plasmodium berghei ANKA 676m1cl1 sporozoites infected in human HepG2A16 cells measured after 45 hrs by luciferase-luciferin based reporter assay; assay type: functional, organism-based; settings: ANKA 676m1cl1, HepG2A16, 45 h
[6] = Half life in human liver microsomes at 1 uM by LC-MS analysis; assay type: ADME, Microsome
[7] = Half life in mouse liver microsomes at 1 uM by LC-MS analysis; assay type: ADME, Microsome
Plasmodium falciparum [8] = test: Inhibition of Plasmodium falciparum cytochrome b-c1
Plasmodium falciparum [9] = test: Antimalarial activity against drug-resistant Plasmodium falciparum Dd2 harboring V259L mutant infected in human erythrocytes after 72 hrs by SYBR green 1-based fluorescence assay; assay type: functional, organism-based; settings: Dd2, 72 h

| Compound | selectivity ratio [1] | IC50 (HepG2) | IC50 (Plasmodium falciparum [2]) | IC50 (Plasmodium falciparum [3]) | IC50 (Plasmodium falciparum [4]) | IC50 (Plasmodium falciparum [5]) | IC50 (Plasmodium berghei) | half-life at 1 µM [6] | half-life at 1 µM [7] | inhibition (Plasmodium falciparum [8]) | IC50 (Plasmodium falciparum [9]) |
| --- | --- | --- | --- | --- | --- | --- | --- | --- | --- | --- | --- |
| CC(C)(C)NCCCOc1ccc2c(=O)c3c(Cl)c(Cl)ccc3[nH]c2c1 | 127 | 24.8 µM | 1360 nM | > 2500 nM | 196 nM | 1630 nM | – | – | – | – | – |
| CCCCNCCCOc1ccc2c(=O)c3c(Cl)cc(Cl)cc3[nH]c2c1 | 110 | 11.1 µM | 186 nM | 82 nM | 101 nM | 294 nM | – | – | – | – | – |
| CN(C)CCOc1ccc2c(=O)c3ccc(Cl)cc3[nH]c2c1 | 1050 | 59 µM | 63 nM | 563 nM | 56 nM | 70 nM | – | – | – | – | – |
| CC(C)(C)NCCCOc1ccc2c(=O)c3c(F)cc(F)cc3[nH]c2c1 | 361 | 41.5 µM | 8.9 nM | 2500 nM | 115 nM | 627 nM | – | – | – | – | – |
| CCCN(CCC)CCOc1ccc2[nH]c3cc(F)cc(F)c3c(=O)c2c1 | 50600 | 20.2 µM | 1 nM | 270 nM | 0.4 nM | 3.2 nM | 0.75 nM | – | – | – | – |
| CCN(CC)CCOc1ccc2c(=O)c3ccc(F)cc3[nH]c2c1 | 127 | 47.9 µM | 485 nM | 1670 nM | 377 nM | 353 nM | 119 nM | > 60 min | > 60 min | – | – |
| O=c1c2ccc(OCCCl)cc2[nH]c2cc(Cl)cc(Cl)c12 | > 7140 | > 100 µM | 12 nM | 409 nM | 14 nM | 44 nM | – | – | – | – | – |
| O=c1c2ccc(OCCCl)cc2[nH]c2cc(F)cc(F)c12 | > 40000 | > 200 µM | 7 nM | 46 nM | 5 nM | 22 nM | – | – | – | – | – |
| CCN(CC)CCOc1ccc2c(=O)c3c(Cl)ccc(Cl)c3[nH]c2c1 | 152 | 77 µM | 1300 nM | > 2500 nM | 506 nM | 848 nM | – | – | – | – | – |
| CCN(CC)CCCOc1ccc2c(=O)c3ccc(Cl)cc3[nH]c2c1 | 72 | 19.7 µM | 254 nM | 1890 nM | 272 nM | 294 nM | 436 nM | > 60 min | 34 min | – | – |
| O=c1c2ccc(OCCCCl)cc2[nH]c2cc(F)cc(F)c12 | > 71400 | > 100 µM | 0.3 nM | 89 nM | 1.4 nM | 1.9 nM | – | – | – | – | – |
| CCCN(CCC)CCOc1ccc2c(=O)c3c(OC)cc(Cl)cc3[nH]c2c1 | 179 | 45 µM | 184 nM | > 2500 nM | 251 nM | 251 nM | – | – | – | – | – |
| CC(C)(C)NCCCOc1ccc2c(=O)c3cc(Cl)ccc3[nH]c2c1 | 112 | 75.2 µM | 1020 nM | 2140 nM | 674 nM | > 2500 nM | – | – | – | – | – |
| CC(C)(C)NCCOc1ccc2c(=O)c3c(Cl)c(Cl)ccc3[nH]c2c1 | 362 | 38.4 µM | 139 to 679 nM | > 2500 nM | 106 nM | 295 nM | – | – | – | inactive | 3070 nM |
| CCCCNCCCOc1ccc2c(=O)c3c(Cl)c(Cl)ccc3[nH]c2c1 | 492 | 22.7 µM | 37 nM | 68 nM | 46 nM | 106 nM | – | – | – | – | – |
| O=c1c2ccc(OCCCCl)cc2[nH]c2cc(Cl)cc(Cl)c12 | > 45500 | > 100 µM | 2.9 nM | 70 nM | 2.2 nM | 6.6 nM | 523 nM | > 60 min | 55 min | – | – |
| CCCN(CCC)CCOc1ccc2c(=O)c3cc(Cl)ccc3[nH]c2c1 | > 27800 | > 100 µM | 15 nM | 317 nM | 3.6 nM | 9.2 nM | 12.5 nM | 12 min | 16 min | – | – |
| CCN(CC)CCOc1ccc2[nH]c3ccc(Cl)cc3c(=O)c2c1 | > 629 | > 100 µM | 399 nM | 297 nM | 159 nM | 521 nM | – | – | – | – | – |
| O=c1c2ccc(OCCNC34CC5CC(CC(C5)C3)C4)cc2[nH]c2ccc(Cl)c(Cl)c12 | 333 | 10 µM | 77 to 390 nM | 163 nM | 30 nM | 176 nM | 86 nM | – | – | inactive | 1100 nM |
